# Reference: US20230365576A1, “BRM Targeting Compounds And Associated Methods Of Use” (Prelude Therapeutics Incorporated, priority 2022, published 2023)
# Key:
# SMARCA4 = biological target: T1, SMARCA4 (Homo sapiens, UniProt P51532); experiment: SMARCA4 HiBiT degradation assay in HeLa cells; type: cell-based; details: 18 hours; for Dmax: HeLa
# T1 construct: SMARCA4-HiBiT knock-in Hela monoclonal cell (CS3023226) were purchased from Promega; host or cells: HeLa (CRISPR HiBiT knock-in monoclonal line, heterozygous)
# Description: (§1) Example A. SMARCA2 HiBiT and SMARCA4 HiBiT Degradation Assay
# (§2) Preparation of SMARCA2/4-HiBiT Knock-In Cells
# (§3) HiBiT peptide knock-in of SMARCA2 in LgBiT expressing HEK293T cells was performed by CRISPR-mediated tagging system as described Promega. The homozygous HiBiT knock-in on c-terminus SMARCA2 was confirmed by sanger sequence. SMARCA2-HiBiT knock-in Hela monoclonal cell (CS302366) and SMARCA4-HiBiT knock-in Hela monoclonal cell (CS3023226) were purchased from Promega. The heterozygous HiBiT-knock-in was confirmed by sanger sequence in both SMARCA2-HiBiT and SMARCA4-HiBiT monoclonal cells.
# (§4) SMARCA2 HiBiT and SMARCA4 HiBiT Degradation Assay in HeLa Cells
# (§5) Compounds were dissolved in DMSO to make 10 mM stock and 3-fold series dilutions were further conducted keeping the highest concentration 10 μM. NCIH1693 and NCIH520 cells were maintained in PRMI 1640 medium (Corning Cellgro, Catalog #:10-040-CV) supplemented with 10% v/v FBS (GE Healthcare, Catalog #: SH30910.03) by splitting 1:3 twice a week.
# (§6) Dispense 10 ul aliquot of prepared Hela-SMARCA2-HiBiT or Hela-SMARCA4-HiBiT cells (1:1 ratio of cells:Trypan Blue (#1450013, Bio-Rad)) onto cell counting slide (#145-0011, Bio-Rad) and obtain cell density and cell viability using cell counter (TC20, Bio-Rad). Remove appropriate volume of resuspended cells from culture flask to accommodate 2500 cells/well @ 20 μL/well. Transfer Hela-HiBiT cells to 50 mL conical (#430290, Corning). Spin down at 1000 rpm for 5 min using tabletop centrifuge (SPINCHRON 15, Beckman). Discard supernatant and resuspend cell pellet in modified EMEM (#30-2003, ATCC) cell culture media containing 10% FBS (F2422-500ML, Sigma), and 1X Penicillin/Streptomycin (200 g/L) (30-002-CI, Corning) to a cell density of 125,000 cells/mL. Dispense 20 μL of resuspended Hela-HiBit cells per well in 384-well TC treated plate (#12-565-343, Thermo Scientific) using standard cassette (#50950372, Thermo Scientific) on Multidrop Combi (#5840310, Thermo Scientific) inside laminar flow cabinet. Dispense test compounds onto plates using digital liquid dispenser (D300E, Tecan). Incubate plates in humidified tissue culture incubator @37° C. for 18 hours. Add 20 μL of prepared Nano-Glo® HiBiT Lytic detection buffer (N3050, Promega) to each well of 384-well plate using small tube cassette (#24073295, Thermo Scientific) on Multidrop Combi, incubate @ RT for 30-60 min. Read plates on microplate reader (Envision 2105, PerkinElmer) using 384 well Ultra-Sensitive luminescence mode. Raw data files and compound information reports are swept into centralized data lake and deconvoluted using automated scripts designed by TetraScience, Inc. Data analysis, curve-fitting and reporting done in Dotmatics Informatics Suite using Screening Ultra module.
# SMARCA2 = biological target: T2, SMARCA2 (Homo sapiens, UniProt P51531); experiment: SMARCA2 HiBiT degradation assay in HeLa cells; type: cell-based; details: 18 hours; for DC50: read-out: SMARCA2 IC50; for Dmax: HeLa
# T2 construct: SMARCA2-HiBiT knock-in Hela monoclonal cell (CS302366); host or cells: HeLa (CRISPR HiBiT knock-in monoclonal line, heterozygous)
# Description: as §1, §2, §3, §4, §5, §6
# T2 sequence (P51531 whole entry): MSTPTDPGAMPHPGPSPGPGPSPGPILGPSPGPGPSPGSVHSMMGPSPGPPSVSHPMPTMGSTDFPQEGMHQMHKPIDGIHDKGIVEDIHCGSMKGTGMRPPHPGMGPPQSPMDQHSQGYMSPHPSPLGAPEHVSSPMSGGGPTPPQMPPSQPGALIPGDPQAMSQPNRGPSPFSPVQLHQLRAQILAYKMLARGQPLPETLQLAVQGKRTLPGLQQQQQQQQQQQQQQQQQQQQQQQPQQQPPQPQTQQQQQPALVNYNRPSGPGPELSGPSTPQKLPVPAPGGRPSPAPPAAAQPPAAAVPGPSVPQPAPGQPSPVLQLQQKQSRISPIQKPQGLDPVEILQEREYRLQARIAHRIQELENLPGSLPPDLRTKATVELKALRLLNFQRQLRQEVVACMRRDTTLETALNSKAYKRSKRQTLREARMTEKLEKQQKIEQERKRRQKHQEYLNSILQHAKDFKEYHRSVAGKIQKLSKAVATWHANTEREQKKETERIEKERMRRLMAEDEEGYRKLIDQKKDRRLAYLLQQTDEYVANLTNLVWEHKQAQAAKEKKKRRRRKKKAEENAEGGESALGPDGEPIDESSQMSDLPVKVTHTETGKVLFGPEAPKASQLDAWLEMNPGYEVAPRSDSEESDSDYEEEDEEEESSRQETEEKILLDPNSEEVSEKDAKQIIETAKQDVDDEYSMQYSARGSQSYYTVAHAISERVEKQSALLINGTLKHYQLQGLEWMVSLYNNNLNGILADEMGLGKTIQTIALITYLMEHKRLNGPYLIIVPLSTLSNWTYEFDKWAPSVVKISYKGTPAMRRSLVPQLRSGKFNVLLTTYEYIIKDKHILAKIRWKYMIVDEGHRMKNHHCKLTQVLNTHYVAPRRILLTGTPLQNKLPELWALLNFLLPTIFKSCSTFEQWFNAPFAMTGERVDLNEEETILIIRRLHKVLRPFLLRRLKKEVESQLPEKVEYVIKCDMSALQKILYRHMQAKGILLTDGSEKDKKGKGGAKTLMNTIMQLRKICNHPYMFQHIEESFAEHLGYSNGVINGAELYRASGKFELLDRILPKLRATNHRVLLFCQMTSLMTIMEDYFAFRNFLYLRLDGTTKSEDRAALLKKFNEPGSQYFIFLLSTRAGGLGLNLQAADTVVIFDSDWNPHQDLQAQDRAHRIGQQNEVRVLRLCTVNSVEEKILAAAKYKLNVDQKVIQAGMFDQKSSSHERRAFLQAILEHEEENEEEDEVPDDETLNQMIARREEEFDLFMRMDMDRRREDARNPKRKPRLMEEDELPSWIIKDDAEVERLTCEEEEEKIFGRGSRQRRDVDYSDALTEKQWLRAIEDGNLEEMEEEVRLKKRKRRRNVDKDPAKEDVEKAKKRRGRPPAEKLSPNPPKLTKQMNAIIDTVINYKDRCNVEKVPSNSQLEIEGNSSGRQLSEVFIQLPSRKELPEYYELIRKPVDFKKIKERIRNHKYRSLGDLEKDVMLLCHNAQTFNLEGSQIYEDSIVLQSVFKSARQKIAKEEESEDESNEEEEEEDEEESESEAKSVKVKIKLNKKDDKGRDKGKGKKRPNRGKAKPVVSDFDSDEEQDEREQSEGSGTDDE
# T1 sequence (P51532 whole entry): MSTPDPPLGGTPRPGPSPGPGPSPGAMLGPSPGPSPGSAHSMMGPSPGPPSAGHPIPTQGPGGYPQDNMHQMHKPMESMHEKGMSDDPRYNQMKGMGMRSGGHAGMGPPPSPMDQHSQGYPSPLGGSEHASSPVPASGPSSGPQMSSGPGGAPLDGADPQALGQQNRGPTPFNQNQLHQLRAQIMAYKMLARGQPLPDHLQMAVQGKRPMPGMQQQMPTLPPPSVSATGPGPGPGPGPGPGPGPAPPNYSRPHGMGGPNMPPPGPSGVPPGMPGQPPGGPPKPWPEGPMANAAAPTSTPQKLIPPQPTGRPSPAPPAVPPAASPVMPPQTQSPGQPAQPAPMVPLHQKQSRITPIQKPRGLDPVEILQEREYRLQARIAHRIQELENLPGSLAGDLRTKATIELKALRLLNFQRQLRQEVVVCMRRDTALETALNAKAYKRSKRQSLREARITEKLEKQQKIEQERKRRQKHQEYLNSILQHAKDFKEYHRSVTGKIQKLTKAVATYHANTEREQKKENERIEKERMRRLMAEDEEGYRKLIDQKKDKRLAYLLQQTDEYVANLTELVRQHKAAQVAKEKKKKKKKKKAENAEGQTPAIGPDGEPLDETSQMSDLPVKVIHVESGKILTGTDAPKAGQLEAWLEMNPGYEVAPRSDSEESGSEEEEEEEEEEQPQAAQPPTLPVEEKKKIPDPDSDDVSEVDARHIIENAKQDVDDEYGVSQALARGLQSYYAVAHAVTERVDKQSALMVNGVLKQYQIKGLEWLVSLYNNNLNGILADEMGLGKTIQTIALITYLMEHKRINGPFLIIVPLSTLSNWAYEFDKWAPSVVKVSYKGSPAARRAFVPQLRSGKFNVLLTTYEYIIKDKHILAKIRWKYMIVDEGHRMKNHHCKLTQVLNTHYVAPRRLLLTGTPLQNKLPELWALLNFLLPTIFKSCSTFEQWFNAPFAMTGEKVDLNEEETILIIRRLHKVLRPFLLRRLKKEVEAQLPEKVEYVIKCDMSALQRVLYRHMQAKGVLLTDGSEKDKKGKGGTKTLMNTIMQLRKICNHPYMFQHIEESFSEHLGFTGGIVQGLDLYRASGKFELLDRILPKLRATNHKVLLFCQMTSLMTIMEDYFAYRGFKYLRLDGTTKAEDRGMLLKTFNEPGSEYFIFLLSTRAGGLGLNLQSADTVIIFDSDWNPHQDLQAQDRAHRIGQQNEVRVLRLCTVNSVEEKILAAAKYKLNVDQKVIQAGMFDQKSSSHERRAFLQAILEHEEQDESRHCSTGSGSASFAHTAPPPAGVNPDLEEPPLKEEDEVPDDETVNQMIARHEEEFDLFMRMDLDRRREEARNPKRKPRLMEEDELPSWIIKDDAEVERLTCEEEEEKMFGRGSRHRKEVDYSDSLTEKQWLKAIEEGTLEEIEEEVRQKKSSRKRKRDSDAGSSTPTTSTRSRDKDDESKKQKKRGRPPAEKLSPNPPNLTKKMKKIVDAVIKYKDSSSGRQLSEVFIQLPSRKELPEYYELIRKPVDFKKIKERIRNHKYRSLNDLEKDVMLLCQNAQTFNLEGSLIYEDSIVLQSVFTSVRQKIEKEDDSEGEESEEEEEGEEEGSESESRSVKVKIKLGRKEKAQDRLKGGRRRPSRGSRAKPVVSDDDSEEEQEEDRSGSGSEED
SMILES,DC50 (SMARCA4),Dmax (SMARCA4),DC50 (SMARCA2),Dmax (SMARCA2),SMARCA4 DMax % (SMARCA4),SMARCA2 DMax % (SMARCA2)
"C[C@@H]1CN(CC2CCN(c3ccc4c(c3)C(=O)N(C3CCC(=O)NC3=O)C4)CC2)C[C@@H](C)N1C(=O)N1CCN2c3cc(-c4cc(F)cc(F)c4O)nnc3NCC2(C)C1 (single isomer, unassigned) [Example 28]",< 100 nM,< 50%,< 100 nM,> 75%,–,–
"CCC12CNc3nnc(-c4cccc(F)c4O)cc3N1CCN(C(=O)C1(F)CCN(CC3CCN(c4ccc5c(c4)C(=O)N([C@H]4CCC(=O)NC4=O)C5)CC3)CC1)C2 (single isomer, unassigned) [Example 107]",100 to 1000 nM,–,< 100 nM,> 75%,C (C=Dmax<50%),–
"CCC12CNc3nnc(-c4cccc(Cl)c4O)cc3N1CCN(C(=O)N1C[C@H](C)N(CC3CCN(c4ccc5c(c4)C(=O)N([C@H]4CCC(=O)NC4=O)C5)CC3)C[C@H]1C)C2 (single isomer, unassigned) [Example 77]",< 100 nM,50 to 75%,< 100 nM,> 75%,–,–
"O=C1CCC(N2Cc3cc(N4CCO[C@@H](CN5CC[C@H](CN6CCN7c8cc(-c9cc(F)cc(F)c9O)nnc8NC[C@H]7C6)[C@@H](F)C5)C4)ccc3C2=O)C(=O)N1 (stereo partly drawn) [Example 51, 3-(5-((S)-2-(((3R,4R)-4-(((S)-2-(3,5-difluoro-2-hydroxyphenyl)-5,6,6a,7,9,10-hexahydro-8H-pyrazino[1′,2′:4,5]pyrazino[2,3-c]pyridazin-8-yl)methyl)-3-fluoropiperidin-1-yl)methyl)morpholino)-1-oxoisoindolin-2-yl)piperidine-2,6-dione]",> 1000 nM,< 50%,< 100 nM,< 50%,–,–
"C[C@@H]1CN(CC2CCN(c3ccc4c(c3)C(=O)N(C3CCC(=O)NC3=O)C4=O)CC2)C[C@H](C)N1C(=O)N1CCN2c3cc(-c4cc(F)cc(F)c4O)nnc3NCC2(C)C1 (stereo partly drawn) [Example 36, 5-(4-(((3S,5R)-4-(2-(3,5-difluoro-2-hydroxyphenyl)-6a-methyl-6,6a,7,8,9,10-hexahydro-5H-pyrazino[1′,2′:4,5]pyrazino[2,3-c]pyridazine-8-carbonyl)-3,5-dimethylpiperazin-1-yl)methyl)piperidin-1-yl)-2-(2,6-dioxopiperidin-3-yl)isoindoline-1,3-dione]",< 100 nM,> 75%,< 100 nM,> 75%,–,–
"CCC12CNc3nnc(-c4cc(F)cc(F)c4O)cc3N1CCN(C(=O)N1CCN(CC3CCN(c4ccc5c(c4)C(=O)N(C4CCC(=O)NC4=O)C5)CC3)CC1(C)C)C2 (mixture of isomers) [Example 27, 3-(6-(4-((4-(2-(3,5-difluoro-2-hydroxyphenyl)-6a-ethyl-6,6a,7,8,9,10-hexahydro-5H-pyrazino[1′,2′:4,5]pyrazino[2,3-c]pyridazine-8-carbonyl)-3,3-dimethylpiperazin-1-yl)methyl)piperidin-1-yl)-1-oxoisoindolin-2-yl)piperidine-2,6-dione]",< 100 nM,50 to 75%,< 100 nM,> 75%,–,–
"O=C1CCC(N2Cc3ccc(N4CCN(C[C@H]5CC[C@H](CN6CCN7c8cc(-c9cccc(F)c9O)nnc8NC[C@H]7C6)CC5)CC4)cc3C2=O)C(=O)N1 (stereo partly drawn) [Example 58, 3-(6-(4-(((1S,4r)-4-(((S)-2-(3-fluoro-2-hydroxyphenyl)-5,6,6a,7,9,10-hexahydro-8H-pyrazino[1′,2′:4,5]pyrazino[2,3-c]pyridazin-8-yl)methyl)cyclohexyl)methyl)piperazin-1-yl)-1-oxoisoindolin-2-yl)piperidine-2,6-dione]",< 100 nM,50 to 75%,< 100 nM,> 75%,–,–
"C[C@@H]1CN(C[C@H]2CN(c3ccc4c(c3)CN(C3CCC(=O)NC3=O)C4=O)CCO2)C[C@H](C)N1C(=O)N1CCN2c3cc(-c4cccc(F)c4O)nnc3NC[C@H]2C1 (stereo partly drawn) [Example 3, 3-(5-((S)-2-(((3R,5S)-4-((S)-2-(3-fluoro-2-hydroxyphenyl)-6,6a,7,8,9,10-hexahydro-5H-pyrazino[1′,2′:4,5]pyrazino[2,3-c]pyridazine-8-carbonyl)-3,5-dimethylpiperazin-1-yl)methyl)morpholino)-1-oxoisoindolin-2-yl)piperidine-2,6-dione]",< 100 nM,< 50%,< 100 nM,> 75%,–,–
"CCC12CNc3nnc(-c4cccc(Cl)c4O)cc3N1CCN(C(=O)N1[C@H](C)CN(CC3CCN(c4ccc5c(c4)C(=O)N([C@H]4CCC(=O)NC4=O)C5)CC3)C[C@H]1C)C2 (single isomer, unassigned) [Example 75]",< 100 nM,50 to 75%,< 100 nM,> 75%,–,–
"CCC12CNc3nnc(-c4cccc(F)c4O)cc3N1CCN(C(=O)N1CCN(CC3CCN(c4ccc5c(c4)C(=O)N(C4CCC(=O)NC4=O)C5)CC3)CC1(C)C)C2 (single isomer, unassigned) [Example 79, 3-(6-(4-((4-(6a-ethyl-2-(3-fluoro-2-hydroxyphenyl)-6,6a,7,8,9,10-hexahydro-5H-pyrazino-[1′,2′:4,5]pyrazino[2,3-c]pyridazine-8-carbonyl)-3,3-dimethylpiperazin-1-yl)methyl)-piperidin-1-yl)-1-oxoisoindolin-2-yl)piperidine-2,6-dione]",> 1000 nM,< 50%,< 100 nM,> 75%,–,–

# Further lines, results first:
DC50 (SMARCA4),Dmax (SMARCA4),DC50 (SMARCA2),Dmax (SMARCA2),SMARCA4 DMax % (SMARCA4),SMARCA2 DMax % (SMARCA2),SMILES
< 100 nM,50 to 75%,< 100 nM,> 75%,–,–,"C[C@@H]1CN(CC2CCN(c3ccc4c(c3)C(=O)N(C3CCC(=O)NC3=O)C4)CC2)C[C@H](C)N1C(=O)N1CCN2c3cc(-c4cccc(F)c4O)nnc3NC[C@]2(C(F)F)C1 (stereo partly drawn) [Example 70, 3-(6-(4-(((3R,5S)-4-((R)-6a-(difluoromethyl)-2-(3-fluoro-2-hydroxyphenyl)-6,6a,7,8,9,10-hexahydro-5H-pyrazino[1′,2′:4,5]pyrazino[2,3-c]pyridazine-8-carbonyl)-3,5-dimethylpiperazin-1-yl)methyl)piperidin-1-yl)-1-oxoisoindolin-2-yl)piperidine-2,6-dione]"
< 100 nM,50 to 75%,< 100 nM,–,–,B (B=50%<Dmax≤75%),"O=C1CCC(N2Cc3ccc(N4CCC(CN5C[C@@H]6[C@H](C5)[C@H]6CN5CCN6c7cc(-c8cc(F)cc(F)c8O)nnc7NC[C@H]6C5)C(F)(F)C4)cc3C2=O)C(=O)N1 (single isomer, unassigned) [Example 40]"
100 to 1000 nM,< 50%,< 100 nM,> 75%,–,–,"CC1(C)CN(CC2CCN(c3ccc4c(c3)C(=O)N([C@H]3CCC(=O)NC3=O)C4)CC2)CCN1C(=O)N1CCN2c3cc(-c4cccc(F)c4O)nnc3NCC2(CF)C1 (single isomer, unassigned) [Example 89]"
< 100 nM,> 75%,< 100 nM,> 75%,–,–,"C[C@@H]1CN(CC2CCN(c3ccc4c(c3)C(=O)N(C3CCC(=O)NC3=O)C4)CC2)C[C@H](C)N1C(=O)N1CCN2c3cc(-c4cc(F)cc(F)c4O)nnc3NCC2(C)C1 (stereo partly drawn) [Example 26, 3-(6-(4-(((3S,5R)-4-(2-(3,5-difluoro-2-hydroxyphenyl)-6a-methyl-6,6a,7,8,9,10-hexahydro-5H-pyrazino[1′,2′:4,5]pyrazino[2,3-c]pyridazine-8-carbonyl)-3,5-dimethylpiperazin-1-yl)methyl)piperidin-1-yl)-1-oxoisoindolin-2-yl)piperidine-2,6-dione]"
< 100 nM,–,< 100 nM,–,–,–,"CCC12CNc3nnc(-c4cc(F)cc(F)c4O)cc3N1CCN(C(=O)N1[C@H](C)CN(CC3CCN(c4ccc5c(c4)C(=O)N(C4CCC(=O)NC4=O)C5)CC3)C[C@@H]1C)C2 (single isomer, unassigned) [Example 87]"
